Activity data for three molecules are collected here from ChEMBL document CHEMBL2074444, “A comparison of commonly used polyethoxylated pharmaceutical excipients on their ability to inhibit P-glycoprotein activity in vitro” (J Pharm Sci, 2002).

Common to all, as to assay type: functional, cell-based
Series [1] deals with T1, ATP-dependent translocase ABCB1 (Homo sapiens, UniProt P08183). The experiment in a line: TP_TRANSPORTER: inhibition of Taxol transepithelial transport (basal to apical)(Taxol: 0.04-0.06 uM, Tween 80: 0.05 %) in Caco-2 cells. (In general: Passage across Caco-2 layers is used to estimate intestinal permeability.)
Series [2] concerns the target T1, ATP-dependent translocase ABCB1. The experiment in a line: TP_TRANSPORTER: inhibition of Taxol transepithelial transport (basal to apical)(Taxol: 0.04-0.06 uM, Tween 80: 0.05 %) in MDR1-expressing MDCK cells. To be noted: dog.
Series [3] has the same target. Briefly: TP_TRANSPORTER: inhibition of Taxol transepithelial transport (basal to apical)(Taxol: 0.04-0.06 uM, Cremophor EL: 0.1 %) in MDR1-expressing MDCK cells. To be noted: dog.
For series [4] the target is unchanged. Briefly: TP_TRANSPORTER: inhibition of Taxol transepithelial transport (basal to apical)(Taxol: 0.04-0.06 uM, Cremophor EL: 0.1 %) in Caco-2 cells.
For series [5] the target is unchanged. Briefly: TP_TRANSPORTER: inhibition of Taxol transepithelial transport (basal to apical) (Taxol: 0.04-0.06 uM, PEG-300: 20 %) in MDR1-expressing MDCK cells. The conditions noted are these: dog.
Series [6] has the same target. The experiment in a line: TP_TRANSPORTER: inhibition of Taxol transepithelial transport (basal to apical) (Taxol: 0.04-0.06 uM, PEG-300: 20 %) in Caco-2 cells.

T1 sequence (P08183 whole entry): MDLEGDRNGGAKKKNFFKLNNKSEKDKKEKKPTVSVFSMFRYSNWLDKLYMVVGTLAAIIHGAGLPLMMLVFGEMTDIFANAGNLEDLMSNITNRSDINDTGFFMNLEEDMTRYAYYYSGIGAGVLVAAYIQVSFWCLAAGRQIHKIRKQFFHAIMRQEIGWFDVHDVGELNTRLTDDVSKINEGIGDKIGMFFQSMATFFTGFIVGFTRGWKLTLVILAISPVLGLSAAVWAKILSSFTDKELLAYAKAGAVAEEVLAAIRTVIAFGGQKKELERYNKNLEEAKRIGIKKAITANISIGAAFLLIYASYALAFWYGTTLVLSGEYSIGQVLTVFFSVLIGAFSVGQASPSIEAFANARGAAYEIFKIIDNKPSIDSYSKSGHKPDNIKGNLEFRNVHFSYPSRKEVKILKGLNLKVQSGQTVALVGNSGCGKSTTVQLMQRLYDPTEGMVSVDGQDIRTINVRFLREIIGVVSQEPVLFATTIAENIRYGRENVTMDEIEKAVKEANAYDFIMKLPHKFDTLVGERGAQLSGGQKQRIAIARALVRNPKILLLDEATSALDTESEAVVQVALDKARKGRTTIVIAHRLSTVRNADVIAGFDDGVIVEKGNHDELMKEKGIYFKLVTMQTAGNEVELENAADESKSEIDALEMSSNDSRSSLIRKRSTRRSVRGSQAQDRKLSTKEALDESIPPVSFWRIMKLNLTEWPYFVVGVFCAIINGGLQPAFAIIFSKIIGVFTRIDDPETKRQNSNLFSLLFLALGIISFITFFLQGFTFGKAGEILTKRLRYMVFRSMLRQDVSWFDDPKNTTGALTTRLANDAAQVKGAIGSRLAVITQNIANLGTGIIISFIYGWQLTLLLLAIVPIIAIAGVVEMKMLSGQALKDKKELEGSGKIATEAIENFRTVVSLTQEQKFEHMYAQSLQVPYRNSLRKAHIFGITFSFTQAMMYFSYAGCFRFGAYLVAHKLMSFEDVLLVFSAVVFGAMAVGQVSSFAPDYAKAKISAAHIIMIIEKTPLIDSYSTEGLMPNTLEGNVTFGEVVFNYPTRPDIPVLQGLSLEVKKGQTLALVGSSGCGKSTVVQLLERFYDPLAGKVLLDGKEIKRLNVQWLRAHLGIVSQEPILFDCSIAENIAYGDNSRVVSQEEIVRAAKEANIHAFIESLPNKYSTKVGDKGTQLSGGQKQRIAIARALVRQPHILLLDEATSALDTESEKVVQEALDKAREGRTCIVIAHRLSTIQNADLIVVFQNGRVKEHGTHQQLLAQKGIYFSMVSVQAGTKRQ

On to `CCCCCCCC/C=C\CCCCCCCC(=O)OCCOCC(OCCO)C1OCC(OCCO)C1OCCO` (stereo unspecified) [TWEEN 80], for which the Activity result in series [1] is “inhibitor [+]”; in series [2], “is not an inhibitor [-]”.

On to CREMOPHOR EL, for which the Activity result was “is not an inhibitor [-]” in series [3] and “inhibitor [+]” in series [4].

As for PEG 300, the Activity result in series [5] and in series [6] was “inhibitor [+]” throughout.
